Laboratory results as given in patent publication US20230085307A1, “PYRIDAZINONE COMPOUND AND HERBICIDE” (NISSAN CHEMICAL CORPORATION, priority 2019, published 2023).

Tests used:
[1] = test system: green foxtail; assay: Test Example 4: herbicidal effect by soil treatment (Table 19, symbol G); type: in vivo, green foxtail (Setaria viridis); conditions: amount of applied herbicide 320 g/ha
How it was run: (§1)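 Emulsion of test compound, water-diluted to predetermined amount, sprayed on soil after sowing (seed depth ~1.5 cm, sterilized diluvial soil). Greenhouse, 25–30° C. Effect graded at three weeks post-spray.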

[2] = test system: southern crabgrass; assay: Test Example 4: herbicidal effect by soil treatment (Table 19, symbol F); type: in vivo, southern crabgrass (Digitaria ciliaris); conditions: amount of applied herbicide 320 g/ha
How it was run: as §1

[3] = test system: barnyard grass; assay: Test Example 5: herbicidal effect by foliage application, plastic box (Table 20, symbol H); type: in vivo, barnyard grass (Echinochloa crus-galli); conditions: foliage application, 320 g/ha, three weeks after application
How it was run: (§2)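 Post-emergence foliar test in sterilized diluvial soil. Compound applied as water-diluted emulsion at a predetermined rate to 14-day-old plants; evaluation at three weeks.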

[4] = test system: velvetleaf; assay: Test Example 4: herbicidal effect by soil treatment (Table 19, symbol M); type: in vivo, velvetleaf (Abutilon theophrasti); conditions: amount of applied herbicide 320 g/ha
How it was run: as §1

[5] = test system: barnyard grass; assay: Test Example 3: herbicidal effect by foliage application, Wagner pot (Table 18, symbol H); type: in vivo, barnyard grass (Echinochloa crus-galli); conditions: 320 g/ha
How it was run: (§3)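 Plants were sown in alluvial soil held under 0.1–0.5 cm standing water and grown 14 days in a greenhouse at 25–30 °C. An emulsifiable formulation, water-diluted to the set dose, was then sprayed onto the foliage, and effects were scored three weeks later using previously defined criteria.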

[6] = test system: lambsquarters; assay: Test Example 5: herbicidal effect by foliage application, plastic box (Table 20, symbol O); type: in vivo, lambsquarters (Chenopodium album); conditions: foliage application, 320 g/ha, three weeks after application
How it was run: as §2

[7] = test system: windgrass; assay: Test Example 4: herbicidal effect by soil treatment (Table 19, symbol L); type: in vivo, windgrass (Apera spica-venti); conditions: amount of applied herbicide 320 g/ha
How it was run: as §1

[8] = test system: Chinese sprangletop; assay: Test Example 3: herbicidal effect by foliage application, Wagner pot (Table 18, symbol D); type: in vivo, chinese sprangletop (Leptochloa chinensis); conditions: 320 g/ha
How it was run: as §3

[9] = test system: chickweed; assay: Test Example 4: herbicidal effect by soil treatment (Table 19, symbol P); type: in vivo, common chickweed (Stellaria media); conditions: amount of applied herbicide 320 g/ha
How it was run: as §1

[10] = test system: Italian ryegrass; assay: Test Example 5: herbicidal effect by foliage application, plastic box (Table 20, symbol K); type: in vivo, Italian ryegrass (Lolium multiflorum); conditions: foliage application, 320 g/ha, three weeks after application
How it was run: as §2

[11] = test system: redroot pigweed; assay: Test Example 5: herbicidal effect by foliage application, plastic box (Table 20, symbol N); type: in vivo, redroot pigweed (Amaranthus retroflexus); conditions: foliage application, 320 g/ha, three weeks after application
How it was run: as §2

[12] = test system: persian speedwell; assay: Test Example 4: herbicidal effect by soil treatment (Table 19, symbol R); type: in vivo, Persian speedwell (Veronica persica); conditions: amount of applied herbicide 320 g/ha
How it was run: as §1

[13] = test system: rice flat sedge; assay: Test Example 3: herbicidal effect by foliage application, Wagner pot (Table 18, symbol E); type: in vivo, rice flat sedge (Cyperus iria); conditions: 320 g/ha
How it was run: as §3

[14] = test system: windgrass; assay: Test Example 5: herbicidal effect by foliage application, plastic box (Table 20, symbol L); type: in vivo, windgrass (Apera spica-venti); conditions: foliage application, 320 g/ha, three weeks after application
How it was run: as §2

[15] = test system: false cleavers; assay: Test Example 5: herbicidal effect by foliage application, plastic box (Table 20, symbol Q); type: in vivo, false cleavers (Galium spurium); conditions: foliage application, 320 g/ha, three weeks after application
How it was run: as §2

[16] = test system: lambsquarters; assay: Test Example 4: herbicidal effect by soil treatment (Table 19, symbol O); type: in vivo, lambsquarters (Chenopodium album); conditions: amount of applied herbicide 320 g/ha
How it was run: as §1

[17] = test system: wild oat; assay: Test Example 5: herbicidal effect by foliage application, plastic box (Table 20, symbol I); type: in vivo, wild oat (Avena fatua); conditions: foliage application, 320 g/ha, three weeks after application
How it was run: as §2

[18] = test system: chickweed; assay: Test Example 5: herbicidal effect by foliage application, plastic box (Table 20, symbol P); type: in vivo, common chickweed (Stellaria media); conditions: foliage application, 320 g/ha, three weeks after application
How it was run: as §2

[19] = test system: Italian ryegrass; assay: Test Example 4: herbicidal effect by soil treatment (Table 19, symbol K); type: in vivo, Italian ryegrass (Lolium multiflorum); conditions: amount of applied herbicide 320 g/ha
How it was run: as §1

[20] = test system: southern crabgrass; assay: Test Example 5: herbicidal effect by foliage application, plastic box (Table 20, symbol F); type: in vivo, southern crabgrass (Digitaria ciliaris); conditions: foliage application, 320 g/ha, three weeks after application
How it was run: as §2

[21] = test system: velvetleaf; assay: Test Example 5: herbicidal effect by foliage application, plastic box (Table 20, symbol M); type: in vivo, velvetleaf (Abutilon theophrasti); conditions: foliage application, 320 g/ha, three weeks after application
How it was run: as §2

[22] = test system: blackgrass; assay: Test Example 5: herbicidal effect by foliage application, plastic box (Table 20, symbol J); type: in vivo, blackgrass (Alopecurus myosuroides); conditions: foliage application, 320 g/ha, three weeks after application
How it was run: as §2

[23] = test system: barnyard grass; assay: Test Example 4: herbicidal effect by soil treatment (Table 19, symbol H); type: in vivo, barnyard grass (Echinochloa crus-galli); conditions: amount of applied herbicide 320 g/ha
How it was run: as §1

[24] = test system: green foxtail; assay: Test Example 5: herbicidal effect by foliage application, plastic box (Table 20, symbol G); type: in vivo, green foxtail (Setaria viridis); conditions: foliage application, 320 g/ha, three weeks after application
How it was run: as §2

[25] = test system: false cleavers; assay: Test Example 4: herbicidal effect by soil treatment (Table 19, symbol Q); type: in vivo, false cleavers (Galium spurium); conditions: amount of applied herbicide 320 g/ha
How it was run: as §1

[26] = test system: persian speedwell; assay: Test Example 5: herbicidal effect by foliage application, plastic box (Table 20, symbol R); type: in vivo, Persian speedwell (Veronica persica); conditions: foliage application, 320 g/ha, three weeks after application
How it was run: as §2

[27] = test system: blackgrass; assay: Test Example 4: herbicidal effect by soil treatment (Table 19, symbol J); type: in vivo, blackgrass (Alopecurus myosuroides); conditions: amount of applied herbicide 320 g/ha
How it was run: as §1

[28] = test system: wild oat; assay: Test Example 4: herbicidal effect by soil treatment (Table 19, symbol I); type: in vivo, wild oat (Avena fatua); conditions: amount of applied herbicide 320 g/ha
How it was run: as §1

[29] = test system: redroot pigweed; assay: Test Example 4: herbicidal effect by soil treatment (Table 19, symbol N); type: in vivo, redroot pigweed (Amaranthus retroflexus); conditions: amount of applied herbicide 320 g/ha
How it was run: as §1

| Compound | herbicidal effect rating, G: green foxtail [1] | herbicidal effect rating, F: southern crabgrass [2] | herbicidal effect grade, H: barnyard grass [3] | herbicidal effect rating, M: velvetleaf [4] | herbicidal effect on H (barnyard grass), rating 0-5 [5] | herbicidal effect grade, O: lambsquarters [6] | herbicidal effect rating, L: windgrass [7] | herbicidal effect on D (Chinese sprangletop), rating 0-5 [8] | herbicidal effect rating, P: chickweed [9] | herbicidal effect grade, K: Italian ryegrass [10] | herbicidal effect grade, N: redroot pigweed [11] | herbicidal effect rating, R: persian speedwell [12] | herbicidal effect on E (rice flat sedge), rating 0-5 [13] | herbicidal effect grade, L: windgrass [14] | herbicidal effect grade, Q: false cleavers [15] | herbicidal effect rating, O: lambsquarters [16] | herbicidal effect grade, I: wild oat [17] | herbicidal effect grade, P: chickweed [18] | herbicidal effect rating, K: Italian ryegrass [19] | herbicidal effect grade, F: southern crabgrass [20] | also measured |
| --- | --- | --- | --- | --- | --- | --- | --- | --- | --- | --- | --- | --- | --- | --- | --- | --- | --- | --- | --- | --- | --- |
| Cc1nn(C)c(=O)c(-c2c(-c3ccc(F)c(F)c3)sc3ccccc23)c1O [1-046] | 0 (Herbicidal rate of 5% or less (almost no effect)) | 0 (Herbicidal rate of 5% or less (almost no effect)) | 4 (Herbicidal rate of 70% or more and less than 90%) | 0 (Herbicidal rate of 5% or less (almost no effect)) | 3 (Herbicidal rate of 40% or more and less than 70%) | 4 (Herbicidal rate of 70% or more and less than 90%) | 0 (Herbicidal rate of 5% or less (almost no effect)) | 0 (Herbicidal rate of 5% or less (almost no effect)) | 5 (Herbicidal rate of 90% or more (almost completely withered)) | 3 (Herbicidal rate of 40% or more and less than 70%) | 5 (Herbicidal rate of 90% or more (almost completely withered)) | 5 (Herbicidal rate of 90% or more (almost completely withered)) | 5 (Herbicidal rate of 90% or more (almost completely withered)) | 0 (Herbicidal rate of 5% or less (almost no effect)) | 5 (Herbicidal rate of 90% or more (almost completely withered)) | 0 (Herbicidal rate of 5% or less (almost no effect)) | 3 (Herbicidal rate of 40% or more and less than 70%) | 5 (Herbicidal rate of 90% or more (almost completely withered)) | 0 (Herbicidal rate of 5% or less (almost no effect)) | 4 (Herbicidal rate of 70% or more and less than 90%) | herbicidal effect grade, M: velvetleaf [21]: 5 (Herbicidal rate of 90% or more (almost completely withered)); herbicidal effect grade, J: blackgrass [22]: 0 (Herbicidal rate of 5% or less (almost no effect)); herbicidal effect rating, H: barnyard grass [23]: 0 (Herbicidal rate of 5% or less (almost no effect)); herbicidal effect grade, G: green foxtail [24]: 4 (Herbicidal rate of 70% or more and less than 90%); herbicidal effect rating, Q: false cleavers [25]: 5 (Herbicidal rate of 90% or more (almost completely withered)); herbicidal effect grade, R: persian speedwell [26]: 5 (Herbicidal rate of 90% or more (almost completely withered)); herbicidal effect rating, J: blackgrass [27]: 0 (Herbicidal rate of 5% or less (almost no effect)); herbicidal effect rating, I: wild oat [28]: 0 (Herbicidal rate of 5% or less (almost no effect)); herbicidal effect rating, N: redroot pigweed [29]: 0 (Herbicidal rate of 5% or less (almost no effect)) |
| COc1cccc(-c2sc3ccccc3c2-c2c(O)c(C)nn(C)c2=O)c1F [1-048] | 0 (Herbicidal rate of 5% or less (almost no effect)) | 0 (Herbicidal rate of 5% or less (almost no effect)) | 0 (Herbicidal rate of 5% or less (almost no effect)) | 0 (Herbicidal rate of 5% or less (almost no effect)) | 4 (Herbicidal rate of 70% or more and less than 90%) | 0 (Herbicidal rate of 5% or less (almost no effect)) | 0 (Herbicidal rate of 5% or less (almost no effect)) | 5 (Herbicidal rate of 90% or more (almost completely withered)) | 3 (Herbicidal rate of 40% or more and less than 70%) | 0 (Herbicidal rate of 5% or less (almost no effect)) | 0 (Herbicidal rate of 5% or less (almost no effect)) | 1 (Herbicidal rate of 5% or more and less than 20%) | 4 (Herbicidal rate of 70% or more and less than 90%) | 0 (Herbicidal rate of 5% or less (almost no effect)) | 0 (Herbicidal rate of 5% or less (almost no effect)) | 0 (Herbicidal rate of 5% or less (almost no effect)) | 0 (Herbicidal rate of 5% or less (almost no effect)) | 5 (Herbicidal rate of 90% or more (almost completely withered)) | 0 (Herbicidal rate of 5% or less (almost no effect)) | 0 (Herbicidal rate of 5% or less (almost no effect)) | herbicidal effect grade, M: velvetleaf [21]: 0 (Herbicidal rate of 5% or less (almost no effect)); herbicidal effect grade, J: blackgrass [22]: 0 (Herbicidal rate of 5% or less (almost no effect)); herbicidal effect rating, H: barnyard grass [23]: 0 (Herbicidal rate of 5% or less (almost no effect)); herbicidal effect grade, G: green foxtail [24]: 0 (Herbicidal rate of 5% or less (almost no effect)); herbicidal effect rating, Q: false cleavers [25]: 0 (Herbicidal rate of 5% or less (almost no effect)); herbicidal effect grade, R: persian speedwell [26]: 4 (Herbicidal rate of 70% or more and less than 90%); herbicidal effect rating, J: blackgrass [27]: 0 (Herbicidal rate of 5% or less (almost no effect)); herbicidal effect rating, I: wild oat [28]: 0 (Herbicidal rate of 5% or less (almost no effect)); herbicidal effect rating, N: redroot pigweed [29]: 0 (Herbicidal rate of 5% or less (almost no effect)) |
